Data on ten compounds can be found in ChEMBL document CHEMBL1806445, “Limonoids from seeds of Thai Xylocarpus moluccensis” (Bioorg Med Chem Lett, 2011).

Structures are written as SMILES. Calls of active or inactive are those of the source. The calls are words filed in the database; no cut-off is given here.

For assay [1], the system named is RAW264.7. Kind of assay: Inhibition of LPS-induced nitric oxide production in mouse RAW264.7 cells assessed as nitrite level after 24 hrs by Griess method. The assay is classed as functional, cell-based. Conditions: for IC50: RAW264.7, 24 h. In general terms: Nitrite, measured by Griess reagent, commonly stands in for NO production.
The subject of assay [2] is Neutrophil. The experiment in a line: Inhibition of superoxide anion generation in fMLP-stimulated human neutrophils. The assay is classed as functional, cell-based.
The test system of assay [3] is RAW264.7. Kind of assay: Cytotoxicity against mouse RAW264.7 cells after 24 hrs by MTT assay. The assay is classed as cell-based. As to conditions: RAW264.7, 24 h.
The subject of assay [4] is RAW264.7. The experiment in a line: Inhibition of LPS-induced nitric oxide production in mouse RAW264.7 cells assessed as nitrite level upto 50 uM after 24 hrs by Griess method. The assay is classed as functional, cell-based.

In the case of `COC(=O)C[C@H]1C(C)(C)[C@H](OC(C)=O)[C@]2(O)CC3=C4CC(=O)O[C@@H](c5ccoc5)[C@]4(C)CC[C@@H]3[C@@]1(C)C2=O` [2-HYDROXYFISSINOLIDE], in assay [1], the inhibition entry is “Dose-dependent effect” and the IC50 – broadly, the midpoint of a concentration-inhibition curve – turned out to be 52.1 µM. In assay [2], this compound came in with an IC50 above 27 µM.
As for `CC1(C)C(=O)C=C[C@]2(C)[C@H]3CC[C@@]4(C)[C@H](c5ccoc5)OC(=O)[C@H]5O[C@]54[C@]3(C)C(=O)C[C@@H]12` [DEACETOXY-7-OXOGEDUNIN], in assay [1], the inhibition entry is “Dose-dependent effect” and the IC50 was determined as 22.8 µM. In assay [3], the 50% inhibitory concentration (IC50) turned out to be 16.7 µM.
In the same order, the values of `CC1(C)C(=O)C=C[C@]2(C)[C@H]3CC[C@@]4(C)[C@H](c5ccoc5)OC(=O)[C@H]5O[C@]54[C@]3(C)[C@H](O)C[C@@H]12` [DEACETYLGEDUNIN] are “Dose-dependent effect”, below 10 µM and 37.6 µM.
`COC(=O)C[C@H]1C(C)(C)C(=O)[C@@H]2CC3=C4CC(=O)O[C@@H](c5ccoc5)[C@]4(C)CC[C@@H]3[C@@]1(C)C2=O` [MEXICANOLIDE]: the inhibition entry in assay [4] is “inactive”. Also, the IC50 in assay [2] is above 27 µM.
In the case of `COC(=O)C[C@H]1[C@]2(C)C[C@]3(O)[C@@](O)(C(=O)C4=C(CC[C@]5(C)C4=CC(=O)O[C@H]5c4ccoc4)[C@]13C)[C@H]2OC(C)=O` [MOLUCCENSIN H], the inhibition entry in assay [4] was “inactive”. This compound also showed a 50% inhibitory concentration (IC50) in assay [2] above 27 µM.
With `COC(=O)C[C@H]1[C@]2(C)C[C@@]3(O)[C@]1(C)[C@H]1CC[C@]4(C)C(=C1C(=O)[C@@]3(OC)[C@H]2OC(C)=O)CC(=O)O[C@H]4c1ccoc1` [MOLUCCENSIN I], the inhibition result in assay [4] was “inactive”. The IC50 in assay [2] is above 27 µM.
On to `COC(=O)C[C@H]1C(C)(C)[C@H](O)[C@@H]2CC3=C4CC(=O)O[C@@H](c5ccoc5)[C@]4(C)CC[C@@H]3[C@@]1(C)C2=O` [PROCERANOLIDE], for which, in assay [1], the inhibition result was “Dose-dependent effect” and the IC50 was 50.7 µM. The IC50 in assay [2] is above 27 µM.
In the case of `COC(=O)C[C@@H]1C(C)(C)C(=O)C=C[C@@]1(C)[C@H]1CC[C@@]2(C)[C@H](c3ccoc3)OC(=O)C[C@]2(O)[C@]1(C)O` [THAIMOLUCCENSIN A], in assay [1], the inhibition result was “Dose-dependent effect” and the IC50 stood at 45.8 µM.
With `COC(=O)C[C@H]1[C@]2(C)CO[C@@]3(O)[C@]1(C)[C@H]1CC[C@]4(C)[C@@H](CC(=O)O[C@H]4c4ccoc4)C1=C[C@@]3(O)[C@H]2OC(C)=O` [THAIMOLUCCENSIN B], the IC50 in assay [2] was above 27 µM.
For `COC(=O)C[C@H]1[C@]2(C)C[C@@]3(OC(=O)C(C)C)[C@]1(C)[C@H]1CC[C@]4(C)C(=C1C(=O)[C@@]3(O)[C@H]2OC(C)=O)CC(=O)O[C@H]4c1ccoc1` [THAIMOLUCCENSIN C], in assay [1], the inhibition result is “Dose-dependent effect” and the concentration for half-maximal inhibition (IC50) was 32.3 µM. This compound also registered a 50% inhibitory concentration (IC50) in assay [2] above 27 µM.
